Assay results from patent US10450260B2, “NO- and H2S-releasing compounds” (RESEARCH FOUNDATION OF THE CITY UNIVERSITY OF NEW YORK, priority 2011, dated 2019).
“And” between values parts separate entries of the source, which are not always exact repeats. Equal entries are not always repeated. Where two headings read alike, the source gives them in different places. Values belong to the compound of their own block, whether it stands above or below them.

Key:
[1] = test system: MIA PaCa-2 human pancreatic cancer; assay: MTT cell growth inhibition, MIA PaCa2; format: cell-based; conditions: for IC50: Homo sapiens, MIA PaCa-2; for Ratio NSAID/NOSH-NSAID, MIAPaCa2: fold-enhancement in potency over the parent compound
Procedure: (§1) HT-29, SW-480 and HCT-15 human colon adenocarcinoma, MIA PaCa-2 and BxPC-3 human pancreatic cancer, LNCAP human prostate cancer, A549 human lung cancer, MCF-7 (estrogen receptor positive), MDA-MB 231 and SK-BR-3 (estrogen receptor negative) human breast cancer, and Jurkats human leukemia cell lines were obtained from American Type Tissue Collection (Manassas, Va.). All cells lines were grown as monolayers except for the Jurkats which were grown in suspension. The pancreatic and breast cancer cells were grown in Dulbecco's modified Eagle's medium, the prostate, Jurkat, SW-480 and HCT-15 colon cells were grown in RPMI 1640 medium, the lung cells were grown in F-12 and the colon HT-29 cells were grown in McCoy 5A. All media were supplemented with 10% fetal calf serum (Invitrogen, Carlsbad, Calif.) penicillin (50 U/ml), and streptomycin (50 μg/ml) (Invitrogen, Carlsbad, Calif.). Cells were seeded on culture dishes at a density of 25×10^3 cells/cm^2 and incubated at 37° C. in 5% CO2 and 90% relative humidity. Single cell suspensions were obtained by trypsinization (0.05% trypsin/EDTA), and cells were counted using a hemocytometer. Viability was determined by the trypan blue dye exclusion method.
(§2) Cell growth inhibitory effect of NOSH compounds were measured using a colorimetric MTT assay kit (Roche, Indianapolis, Ind.). Cancer cells were plated in 96-well plates at a density of 50,000 cells/well. The cells were incubated for 24 h with different concentrations of NOSH compounds. After the indicated time, 10 μl of MTT dye (3-[4,5-dimethylthiazol-2-yl]-2,5-diphenyl tetrazolium bromide, 5 mg/ml in phosphate buffered saline), was added to each well, and the plates were incubated for 2 hours at 37° C. Then, the media was aspirated, and add 100 μl of the solubilization solution (10% SDS in 0.01 M HCl) was added to each well to solubilize the formant crystals. The absorbance of the plates was measured on an ELISA reader at a wavelength of 570 nm. Each sample was performed in triplicate, and the entire experiment was repeated three times.
(§3) HT-29, SW-480 and HCT-15 human colon adenocarcinoma, MIA PaCa-2 and BxPC-3 human pancreatic cancer, LNCAP human prostate cancer, A549 and H383 human lung cancer, MCF-7, MDA-MB 231 and SK-BR-3 human breast cancer and Jurkat T cell human leukemia cell lines were obtained from American Type Tissue Collection (Manassas, Va.) All cells lines were grown as monolayers except for the Jurkat T cells which were grown as suspension culture. The pancreatic and breast cancer cells were grown in Dulbecco's modified Eagle's medium, the prostate, Jurkat, SW-480 and HCT-15 colon cells were grown in RPMI 1640 medium, the lung cells were grown in F-12 and the colon HT-29 cells were grown in McCoy 5A. All media were supplemented with 10% fetal calf serum (Invitrogen, Carlsbad, Calif.) penicillin (50 U/ml), and streptomycin (50 μg/ml) (Invitrogen, Carlsbad, Calif.). Cells were seeded on culture dishes at a density of 25×10^3 cells/cm^2 and incubated at 37° C. in 5% CO2 and 90% relative humidity. Single cell suspensions were obtained by trypsinization (0.05% trypsin/EDTA), and cells were counted using a hemacytometer. The final DMSO concentration was adjusted in all media to 1%. Viability was determined by the trypan blue dye exclusion method.
(§4) Cell growth inhibitory effect of all NOSH-NSAIDs was measured using a colorimetric MTT assay kit (Roche, Indianapolis, Ind.). Cancer cells were plated in 96-well plates at a density of 30,000-50,000 cells/well depending on cell type. The cells were incubated for 24 hours with different concentrations of NOSH-NSAIDs. After the indicated time, 10 μL of MTT dye (3-[4,5-dimethylthiazol-2-yl]-2,5-diphenyl tetrazolium bromide, 5 mg/mL in phosphate buffered saline), was added to each well, and the plates were incubated for 2 hours at 37° C. Then, the media was aspirated, and 100 μL of the solubilization solution (10% SDS in 0.01 M HCl) was added to each well to solubilize the formant crystals. […]

ovine COX-1 = target: T1, ovine COX-1 (Ovis aries, UniProt P05979); assay: COX-1 enzyme activity, colorimetric inhibitor screening kit; format: biochemical; conditions: for preference between COX-1 and COX-2 enzyme inhibition: ovine COX-1 vs COX-2
T1 construct: purchased Cayman Chemicals (Ann Arbor, Mich.)
T1 sequence (P05979 25-600): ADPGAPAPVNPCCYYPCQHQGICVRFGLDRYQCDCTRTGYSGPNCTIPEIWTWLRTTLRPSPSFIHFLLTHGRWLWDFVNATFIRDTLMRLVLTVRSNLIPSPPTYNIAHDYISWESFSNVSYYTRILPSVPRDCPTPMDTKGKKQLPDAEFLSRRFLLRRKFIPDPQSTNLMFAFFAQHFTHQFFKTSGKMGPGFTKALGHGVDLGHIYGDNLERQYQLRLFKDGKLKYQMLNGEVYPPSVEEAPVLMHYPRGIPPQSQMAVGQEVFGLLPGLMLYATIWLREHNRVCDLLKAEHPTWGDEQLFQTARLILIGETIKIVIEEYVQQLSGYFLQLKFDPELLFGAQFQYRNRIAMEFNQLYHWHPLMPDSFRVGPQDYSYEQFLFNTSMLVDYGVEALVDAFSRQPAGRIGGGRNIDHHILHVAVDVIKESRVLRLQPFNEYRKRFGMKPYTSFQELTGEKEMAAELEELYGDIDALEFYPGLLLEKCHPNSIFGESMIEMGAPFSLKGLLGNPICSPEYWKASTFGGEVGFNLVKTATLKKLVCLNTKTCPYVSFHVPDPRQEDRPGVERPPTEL

[2] = test system: BxPC-3 human pancreatic cancer; assay: MTT cell growth inhibition, BxPC3; format: cell-based; conditions: for IC50: Homo sapiens, BXPC-3, read-out: IC50 for cell growth inhibition, Pancreas BxPC3; for Ratio NSAID/NOSH-NSAID, BxPC3: fold-enhancement in potency over the parent compound
Procedure: as §1, §2, §3, §4

[3] = 24 hours (Table 7), read-out: IC50 for cell growth inhibition, Pancreas MIAPaCa2
[4] = 24 hours, read-out: IC50 for cell growth inhibition, Pancreas MIA PaCa2

IC50 [1, 3]: 792 µM | inhibition at 800 µM (ovine COX-1; 800 μM (Table 8)): 84% | COX 1-% Inhibition (ovine COX-1; 800 μM (Table 8), 800 µM): 81.0% | inhibition at 1600 µM (ovine COX-1; 1600 μM (Table 8)): 89.1% | IC50 ([2]; 24 hours (Table 7)): 970 µM
Structure (SMILES): CC1=C(CC(=O)O)c2cc(F)ccc2/C1=C\c1ccc([S+](C)[O-])cc1 (stereo not shown) [sulindac, reference compound]

IC50 [1, 4]: 4.8 ± 0.322 µM | IC50 ([2]; 24 hours): 5.5 ± 0.39 µM
Structure (SMILES): NC(=S)c1ccc(OC(=O)c2ccccc2OC(=O)CCCO[N+](=O)[O-])cc1 [NOSH-3, 4-carbamothioylphenyl 2-((4-(nitrooxy)butanoyl)-oxy)benzoate]

Structure (SMILES): O=C(CCCO[N+](=O)[O-])Oc1ccccc1C(=O)Oc1ccc(-c2cc(=S)ss2)cc1 [NOSH-1, 4-(3-thioxo-3H-1,2-dithiol-5-yl)phenyl 2-((4-(nitrooxy)butanoyl)oxy)benzoate]
IC50 [1, 4]: 0.047 ± 0.005 µM | inhibition at 0.025 µM (ovine COX-1; 25 nM (Table 6)): 8.3 ± 1% | inhibition at 0.05 µM (ovine COX-1; 50 nM (Table 6)): 45.2 ± 2% | inhibition at 0.05 µM (ovine COX-1; 50 nM (Table 8)): 52.6% | COX 1-% Inhibition (ovine COX-1; 50 nM (Table 8), listed as NOSH-ASA, 0.05 µM): 47.6% | inhibition at 0.1 µM (ovine COX-1; 100 nM (Table 6)): 69.4 ± 2.2% | inhibition at 0.1 µM (ovine COX-1; 100 nM (Table 8)): 67.9% | preference between COX-1 and COX-2 enzyme inhibition (ovine COX-1): preferentially inhibits COX-1 | IC50 ([2]; 24 hours): 0.057 ± 0.004 µM

Structure (SMILES): CC(=O)Oc1ccccc1C(=O)O [ASA, aspirin, reference compound]
COX-1, % Inhibition (ovine COX-1; 1 mM (Table 6)): 53.2±1.8% | COX 1-% Inhibition (ovine COX-1; 1 mM, 15 min at 4° C. (Table 8)): 84.9% and 85.9% | COX 1-% Inhibition (ovine COX-1; 3 mM (Table 8)): 86.5%

Structure (SMILES): CC1=C(CC(=O)Oc2ccc(OC(=O)CCCO[N+](=O)[O-])c(C(=O)Oc3ccc(-c4cc(=S)ss4)cc3)c2)c2cc(F)ccc2/C1=C/c1ccc([S+](C)[O-])cc1 (stereo not shown) [NOSH-8, (E)-4-(3-thioxo-3H-1,2-dithiol-5-yl)phenyl 5-(2-(5-fluoro-2-methyl-1-(4-(methylsulfinyl)benzylidene)-1H-inden-3-yl)acetoxy)-2-((4-(nitrooxy)butanoyl)oxy)benzoate]
IC50 [1, 3]: 0.098 µM | Ratio NSAID/NOSH-NSAID, MIAPaCa2 [1]: 8,081 | inhibition at 0.089 µM (ovine COX-1; 89 nM (Table 8)): 43.4% | COX 1-% Inhibition (ovine COX-1; 89 nM (Table 8), listed as NOSH-SULINDAC, 0.089 µM): 45.0% | preference between COX-1 and COX-2 enzyme inhibition (ovine COX-1): preferentially inhibited COX-1 | IC50 ([2]; 24 hours (Table 7)): 0.11 µM | Ratio NSAID/NOSH-NSAID, BxPC3 [2]: 8,818

IC50 [1, 4]: 0.102 ± 0.018 µM | IC50 ([2]; 24 hours): 0.1 ± 0.009 µM
Structure (SMILES): O=C(CCC(=O)Oc1ccccc1C(=O)Oc1ccc(-c2cc(=S)ss2)cc1)OCCCCO[N+](=O)[O-] [NOSH-2, 4-(nitrooxy)butyl (2-((4-(3-thioxo-3H-1,2-dithiol-5-yl)phenoxy)carbonyl)phenyl) succinate]

Structure (SMILES): COc1ccc2cc([C@H](C)C(=O)O)ccc2c1 [naproxen, reference compound]
IC50 [1, 3]: 3200 µM | COX 1-% Inhibition (ovine COX-1; 3 mM (Table 8)): 80.1% | inhibition at 3000 µM (ovine COX-1; read-out: COX 1-% Inhibition, 3 mM (Table 8)): 84.7% | inhibition at 6000 µM (ovine COX-1; read-out: COX 1-% Inhibition, 6 mM (Table 8)): 91.9% | IC50 ([2]; 24 hours (Table 7)): 2450 µM

IC50 [1, 4]: 0.8 ± 0.039 µM | IC50 ([2]; 24 hours): 0.7 ± 0.032 µM
Structure (SMILES): O=C(CCCC[C@@H]1CCSS1)Oc1ccccc1C(=O)OCCCCO[N+](=O)[O-] [NOSH-4, (R)-4-(nitrooxy)butyl 2-((5-(1,2-dithiolan-3-yl)pentanoyl)oxy)benzoate]

Structure (SMILES): CC(C(=O)Oc1ccc(-c2cc(=S)ss2)cc1)c1ccc2cc(OC(=O)CCCO[N+](=O)[O-])ccc2c1 (stereo not shown) [NOSH-7, 6-(1-oxo-1-(4-(3-thioxo-3H-1,2-dithiol-5-yl)phenoxy)propan-2-yl)naphthalen-2-yl 4-(nitrooxy)butanoate]
IC50 [1, 3]: 0.095 µM | Ratio NSAID/NOSH-NSAID, MIAPaCa2 [1]: 33,684 | inhibition at 0.08 µM (ovine COX-1; 80 nM (Table 8)): 42.5% | COX 1-% Inhibition (ovine COX-1; 80 nM (Table 8), listed as NOSH-NAPROXEN, 0.08 µM): 44.4% | inhibition at 0.16 µM (ovine COX-1; 160 nM (Table 8)): 52.3% | preference between COX-1 and COX-2 enzyme inhibition (ovine COX-1): preferentially inhibited COX-1 | IC50 ([2]; 24 hours (Table 7)): 0.08 µM | Ratio NSAID/NOSH-NSAID, BxPC3 [2]: 30,625
